Measurements reported in BindingDB's records for doi:10.7270/Q2V40SNS (Nmmlsc, 2009).

Molecular target: Ras-related protein Rab-2A (Canis lupus familiaris, UniProt P61105)
Test: Rab2 wildtype GTP-binding inhibitors, SAR follow-up, biochemical, additional analogs, bead-based flow cytometry, multiplex (AID 2046)
Conditions: not given

Sequence of Ras-related protein Rab-2A (P61105 whole entry): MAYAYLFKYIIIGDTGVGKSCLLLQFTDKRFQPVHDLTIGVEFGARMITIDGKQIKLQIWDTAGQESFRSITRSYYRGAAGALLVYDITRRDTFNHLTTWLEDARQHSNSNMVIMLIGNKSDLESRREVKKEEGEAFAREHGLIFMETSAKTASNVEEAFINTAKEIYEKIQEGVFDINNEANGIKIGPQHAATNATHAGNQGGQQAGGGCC

EC50 [µM] | SMILES
30 | O=C1NC(=O)/C(=C2/C(=O)Nc3ccccc32)N1
30 | O=C1Nc2c(F)cccc2C1=C1Nc2ccccc2C1=O
30 | O=C1N=c2ccccc2=C1c1[nH]c2ccccc2c1NO [3-[3-(hydroxyamino)-1H-indol-2-yl]-2-indolone]
65.8 | O=C1N=c2c(Br)cccc2=C1c1[nH]c2ccccc2c1NO [7-bromanyl-3-[3-(oxidanylamino)-1H-indol-2-yl]indol-2-one]
1.74 | COc1ccc2cc([C@@H](C)C(=O)O)ccc2c1 [sodium;(2R)-2-(6-methoxy-2-naphthalenyl)propanoate]
30 | C[C@@H](C(=O)O)c1cccc(Oc2ccccc2)c1 [calcium;2-(3-phenoxyphenyl)propanoic acid;hydrate]
30 | O=C1N=c2c(Cl)cccc2=C1c1[nH]c2ccccc2c1NO [7-chloro-3-[3-(hydroxyamino)-1H-indol-2-yl]-2-indolone]
30 | O=C1NC(=S)N/C1=C1\C(=O)Nc2ccccc21 [(3Z)-3-(5-oxo-2-sulfanylideneimidazolidin-4-ylidene)-1H-indol-2-one]
30 | O=C1Nc2ccc(Br)cc2C1=C1Nc2ccccc2C1=O
30 | O=C1N=c2c(F)cccc2=C1c1[nH]c2ccccc2c1NO [7-fluoro-3-[3-(hydroxyamino)-1H-indol-2-yl]-2-indolone]
30 | O=C1Nc2c(Cl)cccc2C1=C1Nc2ccccc2C1=O
30 | COc1ccc2cc([C@H](C)C(=O)O)ccc2c1 [UNM-0000306098]
65.2 | O=C1N=c2ccc(Br)cc2=C1c1[nH]c2ccccc2c1NO [5-bromanyl-3-[3-(oxidanylamino)-1H-indol-2-yl]indol-2-one]
30 | O=C1Nc2ccccc2/C1=C1/Nc2ccccc2C1=O [2-[(3Z)-2-oxo-2,3-dihydro-1H-indol-3-ylidene]-2,3-dihydro-1H-indol-3-one]
30 | O=C1Nc2c(Br)cccc2C1=C1Nc2ccccc2C1=O

Same assay, conditions: inactive by the depositor's call

EC50 [µM] | SMILES
30 | N#Cc1ccc(C(=O)C#Cc2ccccc2)cc1 [4-(3-phenylprop-2-ynoyl)benzenecarbonitrile]
30 | CSc1ccc(/C=C2/C(C)=C(CC(=O)O)c3cc(F)ccc32)cc1 [{6-Fluoro-2-methyl-3-[1-(4-methylsulfanyl-phenyl)-meth-(E)-ylidene]-3H-inden-1-yl}-acetic acid]
30 | COC(=O)c1ccc(C(=O)C#Cc2ccccc2)cc1 [4-(1-oxo-3-phenylprop-2-ynyl)benzoic acid methyl ester]
30 | O=C(C#Cc1ccccc1)c1ccccc1 [UNM-0000306039]
30 | CCCCS(=O)(=O)n1c(N)c(C#N)c(-c2cc(OC)c(OC)c(OC)c2)c1C(=O)c1ccccc1 [2-amino-5-benzoyl-1-butylsulfonyl-4-(3,4,5-trimethoxyphenyl)-3-pyrrolecarbonitrile]
30 | O=C(C#Cc1ccccc1)c1cccnc1 [3-phenyl-1-pyridin-3-ylprop-2-yn-1-one]
30 | O=C(C#Cc1ccccc1)c1ccccc1[N+](=O)[O-] [UNM-0000306038]
30 | COc1ccc(S(=O)(=O)n2c(N)c(C#N)c(-c3cc(Br)c(OC)c(OC)c3)c2C(=O)c2ccccc2)cc1 [UNM-0000305782]
30 | CC(=O)Oc1ccccc1C(=O)O [2-(acetyloxy)benzoic acid]
30 | O=C(C#Cc1ccccc1)c1ccc(OC(F)(F)F)cc1
30 | CC(C)Cc1ccc([C@H](C)C(=O)O)cc1 [(S)-2-(4-Isobutyl-phenyl)-propionic acid]
30 | O=C(C#Cc1ccccc1)c1ccc(Cl)cc1 [UNM-0000306055]
30 | COc1ccc(C(=O)C#Cc2ccccc2)cc1 [1-(4-methoxyphenyl)-3-phenyl-2-propyn-1-one]
30 | O=C1Nc2c(Br)cccc2/C1=C1/Cc2ccccc2C1=O [(3E)-7-bromo-3-(3-oxo-1H-inden-2-ylidene)-1H-indol-2-one]
30 | COc1ccc(S(=O)(=O)n2c(N)c(C#N)c(-c3ccccc3)c2C(=O)c2ccc(Br)cc2)cc1
30 | N#Cc1c(-c2ccc(Cl)cc2)c(C(=O)c2ccccc2)n(S(=O)(=O)c2ccc([N+](=O)[O-])cc2)c1N [UNM-0000305780]
30 | COc1ccc(-c2c(C#N)c(N)n(S(C)(=O)=O)c2C(=O)c2ccccc2)cc1Br [2-azanyl-4-(3-bromanyl-4-methoxy-phenyl)-1-methylsulfonyl-5-(phenylcarbonyl)pyrrole-3-carbonitrile]
30 | COc1ccc(S(=O)(=O)n2c(N)c(C#N)c(-c3cncc(Br)c3)c2C(=O)c2ccccc2)cc1 [2-amino-5-benzoyl-4-(5-bromo-3-pyridinyl)-1-(4-methoxyphenyl)sulfonyl-3-pyrrolecarbonitrile]
30 | COc1cc(-c2c(C#N)c(N)n(S(=O)(=O)c3c(C(C)C)cc(C(C)C)cc3C(C)C)c2C(=O)c2ccccc2)cc(OC)c1OC [2-azanyl-5-(phenylcarbonyl)-4-(3,4,5-trimethoxyphenyl)-1-[2,4,6-tri(propan-2-yl)phenyl]sulfonyl-pyrrole-3-carbonitrile]
30 | CC(C(=O)O)c1cccc(C(=O)c2ccccc2)c1 (configuration not stated) [2-(3-benzoylphenyl)propanoic acid]
30 | O=C1Nc2cccc(Br)c2/C1=C1/Cc2ccccc2C1=O
30 | O=C(C#Cc1ccccc1)c1ccc(F)cc1 [UNM-0000306059]
30 | O=C(C#Cc1ccccc1)c1ccc([N+](=O)[O-])cc1 [1-(4-nitrophenyl)-3-phenyl-2-propyn-1-one]
30 | O=[N+]([O-])c1ccc(C#Cc2ccccc2)cc1
30 | O=C1Nc2ccccc2/C1=C1/Cc2ccccc2C1=O [UNM-0000305763]
30 | CC1=C(CC(=O)O)c2cc(F)ccc2/C1=C/c1ccc([S+](C)[O-])cc1 (configuration not stated) [UNM-0000306136]
30 | COc1ccc2cc(CC(=O)O)ccc2c1 [2-(6-methoxynaphthalen-2-yl)ethanoic acid]
